Values quoted from earlier work in patent US11999963B2, “Pseudomonas protegens and products thereof to control bacterial panicle blight of rice” (priority 2020, dated 2024).

System: Pythium ultimum
Conditions: Howell & Stipanovic, 1980; Maurhofer et al., 1994

Compound: O=C(c1cc(Cl)c(Cl)[nH]1)c1c(O)cccc1O [Pyoluteorin, pyoluteorin]
- activity against Pythium ultimum: had activity
